Converted amounts (≈) assume the structure as drawn.
Tests used:
[1] = tested on: E. coli ATCC 25922; test: Dielectrophoretic test (cell elongation, crossover frequency); format: cell-based, Escherichia coli; settings: for dielectrophoretic behaviour and cell elongation: alternating current frequency 600 kHz
Procedure: Phosphate-buffered saline (PBS) containing 137 mM NaCl, 2.7 mM KCl, 4.3 mM Na2HPO4, and 1.47 mM KH2PO4 at pH 7.4 was prepared. An oral β-lactam antibiotic, cephalexin (Sigma, USA), which generally is used in the treatment of urinary tract infection (UTI), was dissolved in 1×PBS and prepared into a stock concentration of 1024 μg/mL. This stock concentration was diluted with trypticase soy broth (TBS) into 4 μg/mL and 32 μg/mL.
Among different cell lines of Escherichia coli causing urinary infection, E. coli ATCC 25922 was selected and cultured with TBS under shaking at 37° C. Then, the bacterial concentration of the culture suspensions was adjusted to 1.5×10^6 cells/ml by a densitometer (VITEK 2, BioMérieux).
(§1) The bacterial suspension (100 μl) and TBS culture media (containing the antibiotic at different concentrations, 900 μl) were mixed ([…]) and incubated at 37° C. in a shaking incubator for 60 minutes. After the treatment, the bacterial suspensions (500-1000 μl) were centrifugated at 3000-5000 rpm for 3-5 minutes. The supernatant of the bacterial suspensions was removed. Finally, 0.2 M 4-(2-hydroxyethyl)-1-piperazineethanesulfonic acid (HEPES) buffer (500 μl, σ=3 mS/cm, Invitrogen 15630) was added to the remaining bacteria and the formed bacterial suspensions were shaken using a vortex mixer (Shin Kwang, Taiwan) for 30 seconds to avoid aggregation of the bacteria for the following dielectrophoretic tests.
(§2) The bacterial suspensions (5 μl) were pipetted into a sample well of the chip of Preparation Example 1. The electrode array was then connected to a function generator (Fluke 284 USA) and supplied with an alternating current signal or dielectrophoresis. The frequency of E. coli migrating from the electrode center to the electrode edge, was determined as crossover frequency (cof). During dielectrophoresis, the images were observed and recorded through an inverted microscope (Olympus IX70, Japan) and a CCD camera (Microfire, Optronics).
In the same manner as that of Example 1, the antibiotic solutions at 1 μg/mL, 2 μg/mL, 4 μg/mL, 8 μg/mL, 16 μg/mL, 32 μg/mL, and 64 μg/mL were prepared and their action periods of time were 30, 60, and 120 minutes. In addition, the chip of Preparation Example 2 was used in the analysis. For measurement of the cell length of E. coli during dielectrophoresis, when the bacteria were straightly arranged on an ITO quadruple electrode by field-induced dielectrophoretic force, the cell length was analyzed by the image software (FreePlus32).
(§3) In the same manner as that of Example 1, a cefazolin solution at 2 μg/mL was prepared and used to act on E. coli ATCC 25922, w958, and BCRC 15501 for 120 minutes for the following dielectrophoretic testing. Among these cell lines, E. coli w958 from National Cheng Kung University Hospital in Taiwan is a drug-resistant bacterium isolated from clinical samples.

[2] = tested on: E. coli BCRC 15501; test: Dielectrophoretic test (cell elongation); format: cell-based, Escherichia coli; settings: cefazolin 2 μg/mL, 120 minutes
Procedure: as §1, §2, §3

[3] = tested on: E. coli w958; test: Dielectrophoretic test (cell elongation); format: cell-based, Escherichia coli; settings: cefazolin 2 μg/mL, 120 minutes
Procedure: as §1, §2, §3

[4] = tested on: E. coli ATCC 25922; test: Conventional broth dilution method; format: cell-based; settings: Escherichia coli, ATCC25922, 0-16 μg/mL tested, read-out: inhibitory concentration (MIC)
Procedure: (§4) In order to confirm that the results from Example 3 of the present invention are not different from those from a conventional method, a broth dilution method was carried out on E. coli ATCC 25922, w958, and BCRC 15501 at 0 μg/mL, 0.5 μg/mL, 1 μg/mL, 2 μg/mL, 4 μg/mL, 8 μg/mL, 16 μg/mL of cefazolin. The results are shown in FIGS. 6 (a) to (c), wherein No denotes no bacteria.

[5] = tested on: E. coli BCRC 15501; test: Conventional broth dilution method; format: cell-based; settings: Escherichia coli, BCRC15501, 0-16 μg/mL tested, read-out: inhibitory concentration (MIC)
Procedure: as §4

[6] = tested on: E. coli w958; test: Conventional broth dilution method; format: cell-based; settings: Escherichia coli, 0-16 μg/mL tested, read-out: inhibitory concentration (MIC)
Procedure: as §4

[7] = tested on: E. coli; test: Conventional agar dilution method; format: cell-based; settings: Escherichia coli
Text: In order to confirm that the MIC determined in Example 2 of the present invention is not different from that determined in conventional methods, an agar dilution method was used to determine the MIC of cephalexin to E. coli.

MIC [4] [µg/mL] | MIC [5] [µg/mL] | MIC [6] [µg/mL] | SMILES | cell elongation ([1]; cefazolin 2 μg/mL, 120 minutes) | drug resistance of the bacterium ([1]; cefazolin 2 μg/mL, 120 minutes) | cell elongation [2] | drug resistance of the bacterium [2] | drug resistance of the bacterium [3] | morphological cell elongation [3] | crossover frequency (cof) ([1]; 32 μg/mL for 60 minutes) | cell length ([1]; 1-64 μg/mL, 30, 60, 120 minutes, FIGS. 3 (a) and (c)) | MIC ([1]; Escherichia coli, ATCC25922, 1 h, determined by dielectrophoresis, 60 minutes, read-out: minimum inhibitory concentration (MIC)) [µg/mL] | morphological cell elongation ([1]; FIG. 2 (c), text prints 60 minutes, figure legend 120 minutes) | cell elongation ([1]; antibiotic 4 μg/ml, 60 minutes, alternating current frequency 4 MHz) | dielectrophoretic behaviour and cell elongation ([1]; antibiotic 4 μg/ml, 60 minutes) | cell elongation ([1]; antibiotic 32 μg/ml for 1 hour, alternating current frequency 4 MHz) | dielectrophoretic behaviour and cell elongation ([1]; antibiotic 32 μg/ml for 1 hour) | morphological changes in bacteria ([1]; antibiotic treatment for 30 minutes, FIG. 2 (a)) | morphological cell elongation ([1]; antibiotic treatment for 60 minutes, FIG. 2 (b)) | MIC [7] [µg/mL]
2 (≈ 4.4 µM) | 2 (≈ 4.4 µM) | > 16 | Cc1nnc(SCC2=C(C(=O)O)N3C(=O)[C@@H](NC(=O)Cn4cnnn4)[C@H]3SC2)s1 [cefazolin] | obvious cell elongation occurs | not resistant to cefazolin | obvious cell elongation occurs | not resistant to cefazolin | resistant to cefazolin | morphological cell elongation is unobvious | – | – | – | – | – | – | – | – | – | – | –
– | – | – | CC1=C(C(=O)O)N2C(=O)[C@@H](NC(=O)[C@H](N)c3ccccc3)[C@H]2SC1 [cephalexin] | – | – | – | – | – | – | about 600 kHz | cell length increases as the concentration and action time increase | 32 (≈ 92.1 µM) | morphological cell elongation occurs obviously even at a low concentration of the antibiotic | some bacteria are slightly elongated | some bacteria are still arranged at the center of the electrodes by negative dielectrophoretic force. However, the others are adsorbed at the edges of the electrode by positive dielectrophoretic force and slightly elongated | all bacteria have become elongated | all bacteria are adsorbed at the edges of the electrode by positive dielectrophoretic force and have become elongated | distinction between morphological changes in bacteria is difficult | morphological cell elongation occurs obviously as the antibiotic concentrations increase | 32 to 64 (≈ 92.1 to 184 µM)
